This note sets out measurements from patent publication US6001809A, “Inhibitors of leukocyte adhesion” (Elan Pharmaceuticals, Inc., priority 1995, dated 1999).

pIC50: −log10 of the molar value. Bridge positions count the residues as written; N and C are the ends. Square brackets hold non-standard residues; d marks the D form. Ends that are not written are not given here. Peptide text beside a SMILES is read from it. I, II: the chains in the order shown.

T1 sequence (P13612 34-1032): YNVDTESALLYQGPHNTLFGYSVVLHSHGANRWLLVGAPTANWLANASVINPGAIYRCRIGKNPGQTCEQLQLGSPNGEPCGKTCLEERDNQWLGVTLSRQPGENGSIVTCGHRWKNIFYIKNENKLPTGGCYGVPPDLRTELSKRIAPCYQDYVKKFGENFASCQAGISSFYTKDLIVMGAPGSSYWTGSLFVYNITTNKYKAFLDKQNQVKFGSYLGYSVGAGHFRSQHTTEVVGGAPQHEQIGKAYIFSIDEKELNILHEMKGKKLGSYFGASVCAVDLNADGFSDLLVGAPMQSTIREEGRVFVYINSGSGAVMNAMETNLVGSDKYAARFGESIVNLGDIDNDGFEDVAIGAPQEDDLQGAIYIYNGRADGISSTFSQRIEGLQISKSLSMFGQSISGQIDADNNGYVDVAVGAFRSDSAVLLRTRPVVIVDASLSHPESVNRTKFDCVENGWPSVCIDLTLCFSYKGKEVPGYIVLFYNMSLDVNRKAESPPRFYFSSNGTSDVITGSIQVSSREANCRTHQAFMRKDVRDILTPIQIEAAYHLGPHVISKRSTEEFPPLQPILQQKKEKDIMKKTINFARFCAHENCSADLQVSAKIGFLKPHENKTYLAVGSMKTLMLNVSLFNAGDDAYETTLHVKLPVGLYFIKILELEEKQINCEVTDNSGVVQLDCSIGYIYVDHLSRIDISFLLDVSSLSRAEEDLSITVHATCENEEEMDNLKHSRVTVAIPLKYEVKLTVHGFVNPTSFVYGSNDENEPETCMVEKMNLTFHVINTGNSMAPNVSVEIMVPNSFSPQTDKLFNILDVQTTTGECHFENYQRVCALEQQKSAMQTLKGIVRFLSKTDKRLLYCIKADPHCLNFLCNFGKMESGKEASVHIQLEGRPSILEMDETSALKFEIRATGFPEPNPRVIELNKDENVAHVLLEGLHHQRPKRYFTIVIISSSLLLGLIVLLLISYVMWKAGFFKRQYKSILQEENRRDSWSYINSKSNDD
T1 sequence (P05556 21-798): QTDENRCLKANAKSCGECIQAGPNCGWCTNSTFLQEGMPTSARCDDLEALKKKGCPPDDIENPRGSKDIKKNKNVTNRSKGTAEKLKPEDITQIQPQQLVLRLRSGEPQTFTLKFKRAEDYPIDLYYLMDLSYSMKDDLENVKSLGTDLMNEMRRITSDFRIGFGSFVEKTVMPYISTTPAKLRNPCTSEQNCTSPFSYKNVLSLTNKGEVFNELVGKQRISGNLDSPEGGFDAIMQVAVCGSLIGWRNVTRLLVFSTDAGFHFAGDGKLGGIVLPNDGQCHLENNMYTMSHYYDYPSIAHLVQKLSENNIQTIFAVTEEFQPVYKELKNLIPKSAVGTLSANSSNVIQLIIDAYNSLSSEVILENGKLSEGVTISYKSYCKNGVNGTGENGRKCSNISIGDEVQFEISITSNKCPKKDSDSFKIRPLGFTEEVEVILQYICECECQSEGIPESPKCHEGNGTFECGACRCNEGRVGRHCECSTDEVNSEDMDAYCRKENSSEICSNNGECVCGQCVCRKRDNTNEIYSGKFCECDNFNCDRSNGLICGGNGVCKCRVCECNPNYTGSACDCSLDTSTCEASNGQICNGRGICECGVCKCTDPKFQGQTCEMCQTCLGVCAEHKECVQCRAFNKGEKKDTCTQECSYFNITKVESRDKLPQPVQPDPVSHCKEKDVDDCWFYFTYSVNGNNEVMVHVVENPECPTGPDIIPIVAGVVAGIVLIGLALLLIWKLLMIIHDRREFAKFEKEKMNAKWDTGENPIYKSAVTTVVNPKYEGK

One test concerns the target T1, VLA-4 integrin (Homo sapiens, UniProt P05556+P13612).
T1 construct: endogenous in cells; host or cells: Jurkat cells
Briefly: Adhesion of Jurkat cells to peptide-BSA conjugates. The class given is cell-based. The conditions noted are these: peptide conjugated to carrier protein, coated on plastic at 3 μg/mL; FIG. 1. How it is done:
The peptide used in this example was synthesized based on the sequence of the anti-α4 integrin antibody 21/6 (CGGEGYYGNYGVYA, SEQ ID No. 1). In this example the peptide was conjugated to a large carrier protein via the linker region that was synthesized as part of the peptide itself (in italics). The conjugated peptide was then coated onto plastic, and the ability of the conjugate to support cell adhesion was tested. This method is based on a report by Wayner and Kovach^40.
As a positive control, the fibronectin peptide described by Wayner was synthesized, conjugated to carrier protein, and tested for cell adhesion in parallel with SEQ ID NO. 1 (CGGEILDVPST, SEQ ID No. 2). Both peptide conjugates were exposed to the plastic at a concentration of 3 μg/mL. […] Adhesion was not affected by an antibody against β2 integrin (IOT18), a distinct cell adhesion molecule that is also expressed on the surface of Jurkat cells. Thus, like peptide SEQ ID NO. 2, peptide SEQ ID NO. 1 interacts with Jurkat in an α4 integrin-specific fashion.
Turning to “CGGEGYYGNYGVYA [SEQ ID No. 1, peptide from anti-α4 integrin antibody 21/6 with CGG linker, conjugated to carrier protein]”, the “adhesion of Jurkat cells to immobilized peptide conjugate” value is on record as “bound equally well”.

In the case of “CGGEILDVPST [SEQ ID No. 2, fibronectin peptide described by Wayner, positive control, conjugated to carrier protein, reference compound]”, the “adhesion of Jurkat cells to immobilized peptide conjugate” value is reported as “bound equally well”.

Another test deals with T2, VLA-4 integrin interaction with VCAM-1 (Homo sapiens, UniProt P05556+P13612).
T2 construct: endogenous in cells; host or cells: Jurkat cells (VLA-4)
T2 sequence (P13612 34-1032): as the sequence (P13612 34-1032) above
T2 sequence (P05556 21-798): as the sequence (P05556 21-798) above
Briefly: Jurkat interaction with soluble VCAM-1 (sVCAM-1-IgG), FACS assay. The class given is cell-based.
Conditions: not given
From the text: VCAM-1 was expressed as a soluble fusion protein. The construct expressed the seven extracellular domains of VCAM-1 on the N-terminus, and the human IgG1 heavy chain constant region on the C-terminus. Interaction of the soluble construct with Jurkat cells was monitored by standard FACS analysis, using a fluorescently labeled antibody directed against the construct's human IgG tail as a marker.
The activity of VLA-4 can be regulated. 15/7 is a monoclonal antibody that recognizes an activated conformation of VLA-4 and locks the molecule in the active state, thereby enhancing VLA-4-mediated cell adhesion.
Peptides of different length, and with various amino acid substitutions were synthesized based on the sequence of the CDR3 region of the antibody 21/6 (EGYYGNYGVYA) (SEQ ID No. 4). The peptides were then tested for their ability to inhibit Jurkat interaction with sVCAM-1-IgG in the FACS assay described in Example 6. IC50 values were determined for each peptide using this assay.
Background: In flow cytometry, cells or beads pass a laser one at a time.
Consider `NC(=O)C[C@@H]1NC(=O)CNC(=O)[C@H](Cc2ccccc2)NC(=O)CNC(=O)[C@@H](N)CSSC[C@@H](C(=O)O)NC(=O)[C@H](Cc2ccc(O)cc2)NC(=O)[C@H](CO)NC(=O)[C@H](Cc2c[nH]cn2)NC(=O)[C@H](CCC(=O)O)NC1=O` [SEQ ID No. 31, CGFGNEHSYC] (H-CGFGNEHSYC-OH; disulfide 1-10), for which the negative logarithm of the IC50 (pIC50) (as a rule, the IC50 on a negative log10 scale, so that one unit is a factor of ten) was at least 4.30.

Take `NC(=O)C[C@@H]1NC(=O)CNC(=O)[C@H](Cc2ccccc2)NC(=O)[C@@H](N)CSSC[C@@H](C(=O)O)NC(=O)[C@H](CO)NC(=O)[C@H](Cc2c[nH]cn2)NC(=O)[C@H](CCC(=O)O)NC1=O` [SEQ ID No. 32, CFGNEHSC] (H-CFGNEHSC-OH; disulfide 1-8): the pIC50 was at least 4.30. On to `NC(=O)CC[C@@H]1NC(=O)CNC(=O)[C@H](Cc2ccc(O)cc2)NC(=O)[C@H](Cc2ccc(O)cc2)NC(=O)CSC[C@@H](C(=O)O)NC1=O` [SEQ ID No. 52, [Ac]YYGQC] ({CH2CO}-YYGQC-OH; thioether N-5), for which the pIC50 is at least 4.30.

For `C[C@@H]1NC(=O)CNC(=O)[C@H](Cc2ccc(O)cc2)NC(=O)[C@H](Cc2ccc(O)cc2)NC(=O)CSC[C@@H](C(=O)O)NC1=O` [SEQ ID No. 54, [Ac]YYGAC] ({CH2CO}-YYGAC-OH; thioether N-5), the pIC50 is at least 4.30. As to `NC(=O)C[C@@H]1NC(=O)[C@H](CCC(=O)O)NC(=O)[C@H](Cc2ccc(O)cc2)NC(=O)[C@H](Cc2ccc(O)cc2)NC(=O)CSC[C@@H](C(=O)O)NC1=O` [SEQ ID No. 60, [Ac]YYENC] ({CH2CO}-YYENC-OH; thioether N-5), the pIC50 is at least 4.30.

Regarding `NC(=O)C[C@@H]1NC(=O)[C@H](Cc2ccc(O)cc2)NC(=O)CNC(=O)[C@H](Cc2ccc(O)cc2)NC(=O)[C@H](Cc2ccc(O)cc2)NC(=O)CSC[C@@H](C(=O)O)NC1=O` [SEQ ID No. 62, [Ac]YYGYNC] ({CH2CO}-YYGYNC-OH; thioether N-6), the pIC50 is at least 4.30. The same measure, in the same setting: as for `C[C@H](N)C(=O)N[C@@H](Cc1ccc(O)cc1)C(=O)N[C@@H](Cc1ccccc1)C(=O)NCC(=O)N1CCC[C@H]1C(=O)N[C@@H](CSSC[C@H](NC(=O)[C@@H]1CCCN1C(=O)CNC(=O)[C@H](Cc1ccccc1)NC(=O)[C@H](Cc1ccc(O)cc1)NC(=O)[C@H](C)N)C(=O)O)C(=O)O` [SEQ ID No. 71, AYFGPC AYFGPC] (I: H-AYFGPC-OH / II: H-AYFGPC-OH; disulfide I:6-II:6), the figure is at least 4.30. As to `CC(C)C[C@H]1NC(=O)CSC[C@@H](C(=O)O)NC(=O)[C@H](CC(N)=O)NC(=O)CNC(=O)[C@H](Cc2ccccc2)NC1=O` [SEQ ID No. 94, [Ac]lFGNC] ({CH2CO}-[dL]FGNC-OH; thioether N-5), the pIC50 is at least 4.30. With `CC(C)[C@H]1NC(=O)CSC[C@@H](C(=O)O)NC(=O)[C@H](CC(N)=O)NC(=O)CNC(=O)[C@H](Cc2ccccc2)NC1=O` [SEQ ID No. 96, [Ac]vFGNC] ({CH2CO}-[dV]FGNC-OH; thioether N-5), the pIC50 is at least 4.30.

Compound `C[C@H](N)C(=O)N[C@@H](Cc1ccc(O)cc1)C(=O)N[C@@H](Cc1ccc(O)cc1)C(=O)N[C@@H](CCC(=O)O)C(=O)N[C@@H](CC(N)=O)C(=O)N[C@@H](CSSC[C@H](NC(=O)[C@H](CC(N)=O)NC(=O)[C@H](CCC(=O)O)NC(=O)[C@H](Cc1ccc(O)cc1)NC(=O)[C@H](Cc1ccc(O)cc1)NC(=O)[C@H](C)N)C(=O)O)C(=O)O` [SEQ ID No. 123, AYYENC AYYENC] (I: H-AYYENC-OH / II: H-AYYENC-OH; disulfide I:6-II:6) had a pIC50 of at least 4.30. Turning to `NC(=O)C[C@H](NC(=O)[C@H](CCC(=O)O)NC(=O)[C@H](Cc1ccc(O)cc1)NC(=O)[C@H](Cc1ccc(O)cc1)NC(=O)[C@@H](N)CO)C(=O)N[C@@H](CSSC[C@H](NC(=O)[C@H](CC(N)=O)NC(=O)[C@H](CCC(=O)O)NC(=O)[C@H](Cc1ccc(O)cc1)NC(=O)[C@H](Cc1ccc(O)cc1)NC(=O)[C@@H](N)CO)C(=O)O)C(=O)O` [SEQ ID No. 125, SYYENC SYYENC] (I: H-SYYENC-OH / II: H-SYYENC-OH; disulfide I:6-II:6), the pIC50 is at least 4.30. On the same count and under the same terms, as for `C[C@H](N)C(=O)N[C@H](Cc1ccc(O)cc1)C(=O)N[C@@H](Cc1ccc(O)cc1)C(=O)N[C@@H](CCC(=O)O)C(=O)N[C@@H](C)C(=O)N[C@@H](CS)C(=O)O` [SEQ ID No. 133, AyYEAC] (H-A[dY]YEAC-OH), the figure is at least 4.30. The compound `C[C@H](N)C(=O)N[C@H](Cc1ccc(O)cc1)C(=O)N[C@@H](Cc1ccc(O)cc1)C(=O)N[C@@H](CCC(=O)O)C(=O)N[C@@H](C)C(=O)N[C@@H](CSSC[C@H](NC(=O)[C@H](C)NC(=O)[C@H](CCC(=O)O)NC(=O)[C@H](Cc1ccc(O)cc1)NC(=O)[C@@H](Cc1ccc(O)cc1)NC(=O)[C@H](C)N)C(=O)O)C(=O)O` [SEQ ID No. 140, AyYEAC AyYEAC] (I: H-A[dY]YEAC-OH / II: H-A[dY]YEAC-OH; disulfide I:6-II:6) had a pIC50 of at least 4.30. Compound `C[C@H](N)C(=O)N[C@@H](Cc1ccc(O)cc1)C(=O)N[C@@H](Cc1ccc(O)cc1)C(=O)NCC(=O)N[C@@H](Cc1ccc(O)cc1)C(=O)N[C@@H](CC(N)=O)C(=O)N[C@@H](CSSC[C@H](NC(=O)[C@H](CC(N)=O)NC(=O)[C@H](Cc1ccc(O)cc1)NC(=O)CNC(=O)[C@H](Cc1ccc(O)cc1)NC(=O)[C@H](Cc1ccc(O)cc1)NC(=O)[C@H](C)N)C(=O)O)C(=O)O` [SEQ ID No. 144, AYYGYNC AYYGYNC] (I: H-AYYGYNC-OH / II: H-AYYGYNC-OH; disulfide I:7-II:7) gave a pIC50 of at least 4.30. For `C[C@H](N)C(=O)N[C@H](Cc1ccc(O)cc1)C(=O)N[C@@H](Cc1ccc(O)cc1)C(=O)NCC(=O)N[C@@H](C)C(=O)N[C@@H](CSSC[C@H](NC(=O)[C@H](C)NC(=O)CNC(=O)[C@H](Cc1ccc(O)cc1)NC(=O)[C@@H](Cc1ccc(O)cc1)NC(=O)[C@H](C)N)C(=O)O)C(=O)O` [SEQ ID No. 150, AyYGAC AyYGAC] (I: H-A[dY]YGAC-OH / II: H-A[dY]YGAC-OH; disulfide I:6-II:6), the pIC50 was at least 4.30. Turning to `C[C@H](N)C(=O)N[C@H](Cc1ccc(O)cc1)C(=O)N[C@@H](Cc1ccc(O)cc1)C(=O)N[C@@H](CCC(=O)O)C(=O)N[C@@H](CC(N)=O)C(=O)N[C@@H](CSSC[C@H](NC(=O)[C@H](CC(N)=O)NC(=O)[C@H](CCC(=O)O)NC(=O)[C@H](Cc1ccc(O)cc1)NC(=O)[C@@H](Cc1ccc(O)cc1)NC(=O)[C@H](C)N)C(=O)O)C(=O)O` [SEQ ID No. 154, AyYENC AyYENC] (I: H-A[dY]YENC-OH / II: H-A[dY]YENC-OH; disulfide I:6-II:6), the pIC50 is at least 4.30.

On to AYFGPC [SEQ ID No. 142, AYFGPC], for which the pIC50 was at least 4.30. Compound “Ac-EGYYGAYGVYA [SEQ ID No. 9, [Ac]EGYYGAYGVYA]” showed a pIC50 of at least 4.30. In turn, “Ac-EGYYGNAGVAA [SEQ ID No. 15, [Ac]EGYYGNAGVAA]” showed a pIC50 of at least 4.30. Take “Ac-EGYYGNYGAAA [SEQ ID No. 41, [Ac]EGYYGNYGAAA]”: the pIC50 was at least 4.30. “Ac-EGYYGNYGAYA [SEQ ID No. 42, [Ac]EGYYGNYGAYA]” showed a pIC50 of at least 4.30. On the same count and under the same terms, the figure for “Ac-EGYYGNYGGYA [SEQ ID No. 43, [Ac]EGYYGNYGGYA]” is at least 4.30; for “Ac-EGYYGNYGVAA [SEQ ID No. 12, [Ac]EGYYGNYGVAA]” it is at least 4.30. Still for that read-out and setting: the figure for “Ac-EGYYGNYGVY [SEQ ID No. 22, [Ac]EGYYGNYGVY]” is at least 4.30; for “Ac-YYGNYGVYA [SEQ ID No. 45, [Ac]YYGNYGVYA]” it is at least 4.30.

For the compound EGYYGNYGVY [SEQ ID No. 17, EGYYGNYGVY], the pIC50 is at least 4.30. Compound STLTMNPVSF [SEQ ID No. 40, STLTMNPVSF] gave a pIC50 of at least 4.30. In turn, SYYENC [SEQ ID No. 124, SYYENC] had a pIC50 of at least 4.30.

The test is the same for the next values; noted with them: per Example 6: inhibition of Jurkat interaction with sVCAM-1-IgG, FACS, Mn+2 and 15/7 present; read-out: IC50.
On to `CC[C@H](C)[C@@H]1NC(=O)[C@H](CCC(N)=O)NC(=O)[C@H]([C@@H](C)O)NC(=O)[C@H](CCCNC(=N)N)NC(=O)[C@@H](N)CSSC[C@@H](C(=O)O)NC(=O)[C@H](CO)NC(=O)[C@H](CC(=O)O)NC1=O` [SEQ ID No. 35, CRTQIDSC] (H-CRTQIDSC-OH; disulfide 1-8), for which the pIC50 was at least 4.30. On the same count and under the same terms, the figure for “Ac-EGYYGNYGVYA [SEQ ID No. 4, [Ac]EGYYGNYGVYA]” is at least 4.30.
